Legend:
mouse model = mouse model of Gale et al; cited from earlier work
cardiac iron = details: cited from earlier work; for Change in T2 relaxation time in a randomized trial: mean treatment period of 22 months
patients = details: large safety study; cited from earlier work
[1] = system: iron overload in patients with thalassemia major; experiment: Iron overload assessment in the retrospective study (serum ferritin, hepatic iron by SQUID, urinary iron excretion); assay type: in vivo, human; details: for Mean ± SD overall urinary iron excretion: during the study period
Experimental: All patients were subjected to the same transfusion regimen aimed at maintaining the pretransfusion hemoglobin levels at 9.5–10.0 g/dL and the mean hemoglobin at 12.0 g/dL. At each episode of red blood cell transfusion, each patient was interviewed and underwent clinical evaluation by a staff physician. The iron overload was determined by monthly assessment of the transfusional-iron input and by quarterly assessment of serum ferritin.
To evaluate the differences related to chelation therapy between the two groups of subjects, after the start of the study, 2 sample t-tests or Chi-square tests were performed to compare their transfusional iron input, serum ferritin, percentage of subjects with more than 50% of their serum ferritin data greater than 2500 μg/L during the study, compliance with chelation therapy, liver iron concentration and urinary iron excretion.

[2] = system: subjects with thalassemia; experiment: Prospective clinical study of the Assignee in 187 subjects with thalassemia, heart failure; assay type: in vivo, human; details: treated for up to 5 years
Text: The Assignee completed other studies wherein the largest prospective clinical study ever conducted for an iron chelator was made. One hundred eighty-seven subjects with thalassemia were enrolled in this trial conducted by Drs. A. Cohen, R. Galanello, A. Piga, and V. De […] in 3 centres in Italy and 1 center in the USA.

[3] = system: subjects with thalassemia major; experiment: Retrospective study of cardiac disease (NYHA class, echocardiogram) and survival under chelation therapy; assay type: in vivo, human; details: for Percentage of patients with improvement of cardiac disease diagnosed at first assessment: NYHA classification; for Percentage of patients with worsening of the cardiac disease: overall, patients with at least 2 cardiac assessments; for Newly diagnosed cardiac disease: patients cardiac disease-free at first assessment with a second cardiac assessment; for Deaths during the study period: patients treated for 4 or more years; for Normalization of the Ejection Fraction (EF) during chelation therapy: patients with abnormal EF at first assessment (2 deferiprone, 1 desferrioxamine); for Improvement of the Systolic Function (SF): patients with abnormal SF at first echocardiographic assessment; for Percentage of patients with improvement of cardiac disease diagnosed at first assessment / Worsening of the cardiac disease in patients with previously diagnosed cardiac disease: patients with cardiac disease at first assessment
Experimental: The study was a single centre, retrospective analysis of medical records of the occurrence of cardiac disease and of the survival of all subjects with thalassemia major treated with deferiprone or with desferrioxamine at the Centro Microcitemie of the University of Turin since Jan. 1, 1995. The medical records were evaluated of all patients ≧5 year-old at the time of the start of the review period and who had the diagnosis of thalassemia major confirmed by laboratory tests (electrophoresis and/or DNA analysis) and clinical criteria (participant's hemoglobin and transfusion dependency).
In addition to the clinical evaluation and laboratory testing, patients underwent periodic cardiac examination and assessment by a cardiologist, which in addition to the physical examination included echocardiogram and 24-hour electrocardiographic Holter monitoring if indicated. Cardiac disease was classified, according to the criteria defined by the New York Heart Association ^17, by a cardiologist experienced in heart problems in subjects with hemoglobinopathies and who was unaware of the chelation therapy of the patients. Worsening of the Systolic Function (SF) or the Ejection Fraction (EF) was defined as an abnormal result at the last assessment in patients with a normal result at the first assessment for the study. Improvement was defined as a normal result at the last assessment for patients with an abnormal result at the first assessment. The first cardiac assessment was considered as the baseline value for each patient. For patients with more than one echocardiograph assessment within a year of the study, the change was based on the mean of the results of that year.
Starting in 1995, a substantial proportion of subjects followed up at the center were treated with deferiprone, in clinical trials or for compassionate therapy. For these patients, deferiprone was given in a dose of 25 mg/kg of body weight, three times per day. The remaining patients had maintained therapy with desferrioxamine (20 to 60 mg/kg/day), given as a subcutaneous infusion for 8 to 12 hour, 4 to 7 days a week except for one patient. Although 2 patients in the desferrioxamine group had their chelation intensified with intravenous chelation during the period of this review, they were not excluded from the analysis.
The Kaplan-Meier analysis of heart disease free survival for patients who were disease-free (NYHA class not applicable=0) at the beginning of the review period was performed by using the procedure LIFETEST from SAS (SAS Institute, Cary, N.C.). The primary comparison of the two groups was based on the log rank test. […] In addition to the Kaplan-Meier analysis, the incidence of patients with a worsening of their NYHA class from the first to the last cardiac assessment was determined for, each treatment group. Chi-square test was performed to compare the incidence between the two groups.

[4] = system: iron-loaded rat neonatal myocytes; details: cited from earlier work; for Cardio-protective effects against iron-induced damage in neonatal rat myocytes: 100 μM; for Protecting the myocytes against iron-induced damage: at the concentrations used; for Removing iron from iron-loaded rat neonatal myocytes: in vitro
[5] = system: subjects with thalassemia major; details: one patient participating in the study (ref. 31); cited from earlier work
[6] = cited from earlier work
[7] = Serum / blood concentrations at standard doses; assay type: in vivo, human; details: current / standard formulation
Experimental: Although a serum concentration of 100 μM for deferiprone can occur with the administration of a single 25 mg/kg dose^22, the serum concentration of desferrioxamine in patients receiving 40 mg/kg/day is usually less than 10 μM.^23. Since the desferrioxamine concentrations used in the myocyte study were more than 10fold the expected serum concentrations, the in vivo cardioprotective effect of this chelator would be expected to be less than that of deferiprone, but not four times less protective placing the patient at a 4-fold greater likelihood of developing a worsening of their cardiac status with desferrioxamine.
Another factor may be related to the different pharmacokinetic characteristics of deferiprone and desferrioxamine when these drugs are given at standard doses, as in the present study. For example, deferiprone at 25 mg/kg, produces peak concentrations of approximately 100 μM with serum concentrations declining to about 10 μM in 6 hours, and this pattern is repeated three times daily, seven days a week. On the other hand, desferrioxamine at 40 mg/kg achieves concentrations of only 5–10 μM and only for the duration of the infusion (8–12 hours/day, 5–7 days per week). The long periods of time without the presence of an iron chelator may have a profound effect on the generation of iron-induced activity within myocytes and through non-transferrin bound iron. […]

Structure (SMILES) | Reduction of iron concentrations from the heart (mouse model) | Change in T2 relaxation time in a randomized trial (cardiac iron) | Mean ± SD hepatic iron concentration - SQUID during the last year of the review period [1] | Percentage (%) of patients with more than 50% of their serum ferritin results > 2,500 μg/L during the review period [1] | Mean ± SD overall urinary iron excretion [1] | Mean serum ferritin ± SD at year 4 of the review period [1] | Percentage of patients with improvement of cardiac disease diagnosed at first assessment [3] | Worsening of the SF at the last assessment ([3]; number of patients) | Percentage of patients with worsening of the cardiac disease [3] | Newly diagnosed cardiac disease [3] | Deaths during the study period [3] | Normalization of the Ejection Fraction (EF) during chelation therapy [3] | Improvement of the Systolic Function (SF) [3] | Worsening of the cardiac disease in patients with previously diagnosed cardiac disease [3] | Cardio-protective effects against iron-induced damage in neonatal rat myocytes [4] | Protecting the myocytes against iron-induced damage [4] | Removing iron from iron-loaded rat neonatal myocytes [4] | other results
Cc1c(O)c(=O)ccn1C [Deferiprone, 1,2-dimethyl-3-hydroxypyrid-4one] | none of the compounds studied, being desferrioxamine and deferiprone among others, reduced iron concentrations from the heart | significant improvement | 2.5 ± 1.2 mg FE/g liver wet weight | 33% | 18.1 ± 13.2 mg Fe/day | 2402 ± 1331 µg/L | 40 (2/5) % | 2 patients | 4 (2/45) % | 5% | No patient | All three patients presented a normalization of the EF | 2 of the 4 | none of the 5 | equal cardio-protective effects | equally effective | effective | T2 relaxation time, after treatment (cardiac iron; 23 patients treated for over one year, normal 32 msec): 30.5 ± 6.7 ms; T2 relaxation time, before (cardiac iron; 23 patients, start value, normal 32 msec): 26.6 ± 8.4 ms; Development of agranulocytosis (patients): about 1%; Occurrence of heart failure [2]: no heart failure occurred; Percentage of patients with improvement of cardiac disease diagnosed at first assessment ([3]; listed as deferiprone): 40%; Percentage of patients with worsening of the cardiac disease ([3]; listed as deferiprone): 4%; Reversal of iron-induced congestive heart failure [5]: successful reversal; Serum concentrations declining to ([6]; 25 mg/kg, in 6 hours): about 10 μM; Peak concentrations ([6]; 25 mg/kg): approximately 100 μM; Serum concentration ([6]; single 25 mg/kg dose): 100 µM; Time after which blood levels fall to very low levels [7]: about 4 hours
CC(=O)N(O)CCCCCNC(=O)CCC(=O)N(O)CCCCCNC(=O)CCC(=O)N(O)CCCCCN [Desferrioxamine] | none of the compounds studied, being desferrioxamine and deferiprone among others, reduced iron concentrations from the heart | no change | 1.8 ± 1.0 mg FE/g liver wet weight | 21% | 15.5 ± 12.9 mg Fe/day | 2050 ± 1319 µg/L | 27 (3/11) % | 6 patients | 17 (10/59) % | 19% | No patient | All three patients presented a normalization of the EF | 5 of the 8 | one of the 11 | equal cardio-protective effects | equally effective | effective | Percentage of patients with improvement of cardiac disease diagnosed at first assessment ([3]; listed as desferrioxamine): 27%; Likelihood to develop a worsening of cardiac status versus deferiprone-treated patients ([3]; desferrioxamine versus deferiprone, same period): 4 fold; Worsening of the EF ([3]; number of patients): 3 patients; Percentage of patients with worsening of the cardiac disease ([3]; listed as desferrioxamine): 17%; Iron removed, comparison of the two chelators ([4]; equimolar concentrations): removed more iron than deferiprone

— patent US7049328B2, “Use for deferiprone” (priority 2000, dated 2006)
